# In patent publication US9895330B2, “IDO inhibitors” (BRISTOL-MYERS SQUIBB COMPANY, priority 2013, dated 2018):
# pIC50: −log10 of the molar value.
# Molecular target: T1, IDO (IFNγ-treated Hela cells) (Homo sapiens, UniProt P14902)
# T1 construct: endogenous in cells; host or cells: Hela cells treated with IFNγ (10 ng/ml)
# Test: IDO Kynurenine Assay with Hela Cells
# Assay type: cell-based
# Details: IFNγ 10 ng/ml, 20 hours incubation, kynurenine absorbance at 490 nm, read-out: Hela Cells LLE_IDO_ABS_DR (IC50)
# Experimental: IDO Kynurenine Assay with Hela Cells
# Hela cells were seeded at 30,000 cells per well in 40 ul RPMI/phenol red free media contains 10% FBS in a 384-well black wall clear bottom tissue culture plate (Matrix Technologies LLC). 270 nl of certain concentration of compound was then added to each well using ECHO liquid handling systems. 40 ul of IFNγ (R&D, 285-IF-100) at final concentration of 10 ng/ml was then added to column 2-24 with media to column 1 as control. The cells were incubated for 20 hours in 37° C. incubator with 5% CO2.
# The compound treatments were stopped by adding trichloroacetic acid (Sigma-Aldrich) to a final concentration at 0.2%. The cell plate was further incubated at 50° C. for 30 minute. The equal volume supernatant (20 uL) and 0.2% (w/v) Ehrlich reagent (4-dimethylaminobenzaldehyde, Sigma-Aldrich) in glacial acetic acid were mixed in a new clear bottom 384-well plate. This plate was then incubated at room temperature for 30 minute. The absorbance at 490 nm was measured on Envision plate reader.
# Compound IC50 values were calculated using the counts of no IFNγ control as one hundred percent inhibition, and counts of no compound but DMSO treatment as zero percent inhibition.
# T1 sequence (P14902 whole entry): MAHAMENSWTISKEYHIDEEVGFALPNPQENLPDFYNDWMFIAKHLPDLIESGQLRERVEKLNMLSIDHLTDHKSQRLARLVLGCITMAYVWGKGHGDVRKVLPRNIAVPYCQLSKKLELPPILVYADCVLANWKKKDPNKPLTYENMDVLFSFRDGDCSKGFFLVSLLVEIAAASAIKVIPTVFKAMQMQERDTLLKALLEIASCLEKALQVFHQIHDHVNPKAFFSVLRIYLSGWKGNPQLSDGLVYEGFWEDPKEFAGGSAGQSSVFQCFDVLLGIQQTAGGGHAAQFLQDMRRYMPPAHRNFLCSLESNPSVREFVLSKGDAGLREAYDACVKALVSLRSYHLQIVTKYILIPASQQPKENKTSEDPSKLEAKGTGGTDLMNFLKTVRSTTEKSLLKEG
row,Structure (SMILES),pIC50
1,"Cc1ccc(CC(=O)Nc2cc(-c3cc(F)ccc3C(=O)O)ccc2N(CC(C)C)CC(C)C)cc1 [Example 1, 4′-(Diisobutylamino)-5-fluoro-3′-(2-p-tolylacetamido)biphenyl-2-carboxylic acid]",8.00
2,"Cc1ccc(CC(=O)Nc2cc(-c3ccccc3-c3nnn[nH]3)ccc2N(CC(C)C)CC(C)C)cc1 [Example 2, N-(4-(Diisobutylamino)-2′-(1H-tetrazol-5-yl)biphenyl-3-yl)-2-p-tolylacetamide]",8.30
3,"CC(C)CN(Cc1ccccc1)c1ccc(-c2ccccc2-c2nnn[nH]2)cc1NC(=O)Cc1ccccc1C(F)(F)F [Example 3, N,N-(4-(Benzyl(isobutyl)amino)-2′-(1H-tetrazol-5-yl)biphenyl-3-yl)-2-(2-(trifluoromethyl)phenyl)acetamide]",7.70
4,"Cc1ccc(CC(=O)Nc2cc(-c3ccccc3C(=O)O)ccc2N(CC(C)C)CC(C)C)cc1 [Example 4, 4′-(diisobutylamino)-3′-(2-p-tolylacetamido) biphenyl-2-carboxylic acid]",8.00
5,"CC(C)CN(c1ccc(-c2ccccc2C(=O)O)cc1NC(=O)Cc1ccccc1F)C1CCCCC1 [Example 5, 4′-(cyclohexyl(isobutyl)amino)-3′-(2-(2-fluorophenyl)acetamido) biphenyl-2-carboxylic acid]",7.40
6,"CC(C)CN(c1ccc(-c2cc(F)ccc2C(=O)O)cc1NC(=O)Cc1ccccc1F)C1CCCCC1 [Example 6, 4′-(cyclohexyl(isobutyl)amino)-5-fluoro-3′-(2-(2-fluorophenyl)acetamido) biphenyl-2-carboxylic acid]",7.30
7,"CC(C)CN(c1ccc(-c2ccccc2-c2nnn[nH]2)cc1NC(=O)Cc1ccccc1C(F)(F)F)C1CCCCC1 [Example 7, N-(4-(cyclohexyl(isobutyl)amino)-2′-(1H-tetrazol-5-yl)biphenyl-3-yl)-2-(2-(trifluoromethyl)phenyl)acetamide]",6.89
8,"CC(C)CN(c1ccc(-c2ccccc2C(=O)O)cc1NC(=O)Cc1ccccc1C(F)(F)F)C1CCCCC1 [Example 8, 4′-(cyclohexyl(isobutyl)amino)-3′-(2-(2-(trifluoromethyl)phenyl)acetamido)biphenyl-2-carboxylic acid]",6.03
9,"CC(C)CN(c1ccc(-c2ccccc2-c2nnn[nH]2)cc1NC(=O)Cc1ccccc1F)C1CCCCC1 [Example 9, N-(4-(cyclohexyl(isobutyl)amino)-2′-(1H-tetrazol-5-yl)biphenyl-3-yl)-2-(2-fluorophenyl)acetamide]",7.70
10,"CCCCN(c1ccc(-c2ccccc2-c2nnn[nH]2)cc1NC(=O)Cc1ccccc1F)C1CCCCC1 [Example 10, N-(4-(butyl(cyclohexyl)amino)-2′-(1H-tetrazol-5-yl)-[1,1′-biphenyl]-3-yl)-2-(2-fluorophenyl) acetamide]",8.15
11,"COc1ccc(CC(=O)Nc2cc(-c3ccccc3-c3nnn[nH]3)ccc2N(CC(C)C)CC(C)C)cc1 [Example 11, N-(4-(diisobutylamino)-2′-(1H-tetrazol-5-yl)biphenyl-3-yl)-2-(4-methoxyphenyl)acetamide]",8.39
12,"CC(C)CN(CC(C)C)c1ccc(-c2ccccc2-c2nnn[nH]2)cc1NC(=O)Cc1ccc(C(C)C)cc1 [Example 13, N-(4-(diisobutylamino)-2′-(1H-tetrazol-5-yl)biphenyl-3-yl)-2-(4-isopropylphenyl) acetamide]",5.88
13,"CC(C)CN(CC(C)C)c1ccc(-c2ccccc2-c2nnn[nH]2)cc1NC(=O)Cc1ccc2c(c1)OCO2 [Example 14, 2-(benzo[d][1,3]dioxol-5-yl)-N-(4-(diisobutylamino)-2′-(1H-tetrazol-5-yl)biphenyl-3-yl)acetamide]",7.70
14,"CC(C)CN(CC(C)C)c1ccc(-c2ccccc2-c2nnn[nH]2)cc1NC(=O)Cc1ccc(OC(F)(F)F)cc1 [Example 15, N-(4-(diisobutylamino)-2′-(1H-tetrazol-5-yl)biphenyl-3-yl)-2-(4-(trifluoromethoxy)phenyl)acetamide]",7.05
15,"CC(C)CN(CC(C)C)c1ccc(-c2ccccc2-c2nnn[nH]2)cc1NC(=O)Cc1cccc(F)c1 [Example 16, N-(4-(diisobutylamino)-2′-(1H-tetrazol-5-yl)biphenyl-3-yl)-2-(3-fluorophenyl)acetamide]",8.05
16,"CC(C)CN(CC(C)C)c1ccc(-c2ccccc2-c2nnn[nH]2)cc1NC(=O)Cc1ccc(Cl)cc1 [Example 17, 2-(4-chlorophenyl)-N-(4-(diisobutylamino)-2′-(1H-tetrazol-5-yl)biphenyl-3-yl)acetamide]",8.35
17,"COc1ccc(CC(=O)Nc2cc(-c3ccccc3-c3nnn[nH]3)ccc2N(CC(C)C)CC(C)C)c(C(F)(F)F)c1 [Example 18, N-(4-(diisobutylamino)-2′-(1H-tetrazol-5-yl)biphenyl-3-yl)-2-(4-methoxy-2-(trifluoromethyl)phenyl)acetamide]",7.40
18,"CC(C)CN(CC(C)C)c1ccc(-c2ccccc2-c2nnn[nH]2)cc1NC(=O)Cc1ccccc1F [Example 19, N-(4-(diisobutylamino)-2′-(1H-tetrazol-5-yl)biphenyl-3-yl)-2-(2-fluorophenyl)acetamide]",7.70
19,"Cc1ccc(CC(=O)Nc2cc(-c3ccccc3-c3nnn[nH]3)ccc2N(CC(C)C)CC(C)C)c(F)c1 [Example 20, N-(4-(diisobutylamino)-2′-(1H-tetrazol-5-yl)biphenyl-3-yl)-2-(2-fluoro-4-methylphenyl)acetamide]",8.04
20,"Cc1ccc(CC(=O)Nc2cc(-c3ccccc3-c3nnn[nH]3)ccc2N2C[C@H](C)C[C@H](C)C2)cc1 [Example 21, N-(4-(cis-3,5-Dimethylpiperidin-1-yl)-2′-(1H-tetrazol-5-yl)-[1,1′-biphenyl]-3-yl)-2-(p-tolyl)acetamide]",6.28
21,"C[C@@H]1C[C@H](C)CN(c2ccc(-c3ccccc3-c3nnn[nH]3)cc2NC(=O)Cc2ccc(F)cc2)C1 [Example 22, N-(4-(cis-3,5-Dimethylpiperidin-1-yl)-2′-(1H-tetrazol-5-yl)-[1,1′-biphenyl]-3-yl)-2-(4-fluorophenyl)acetamide]",5.92
22,CC(C)CN(CC(C)C)c1ccc(-c2ccccc2-c2nnn[nH]2)cc1NC(=O)CC#N [Example 23],6.55

row,Structure (SMILES),pIC50
1,CC(C)CN(CC(C)C)c1ccc(-c2ccccc2-c2nnn[nH]2)cc1NC(=O)Cc1cccc2ccccc12 [Example 24],7.10
2,CC(C)CN(CC(C)C)c1ccc(-c2ccccc2-c2nnn[nH]2)cc1NC(=O)Cc1ccccc1Cl [Example 25],7.70
3,CC(C)CN(CC(C)C)c1ccc(-c2ccccc2-c2nnn[nH]2)cc1NC(=O)Cc1ccccc1C(F)(F)F [Example 26],7.30
4,CC(C)CN(CC(C)C)c1ccc(-c2ccccc2-c2nnn[nH]2)cc1NC(=O)Cc1cccc(C(F)(F)F)c1 [Example 27],6.80
5,CC(C)CN(CC(C)C)c1ccc(-c2ccccc2-c2nnn[nH]2)cc1NC(=O)Cc1ccc(O)cc1 [Example 28],7.05
6,CC(C)CN(CC(C)C)c1ccc(-c2ccccc2-c2nnn[nH]2)cc1NC(=O)Cc1ccc(C(F)(F)F)cc1 [Example 29],7.22
7,CC(C)CN(CC(C)C)c1ccc(-c2ccccc2-c2nnn[nH]2)cc1NC(=O)Cc1ccccn1 [Example 30],6.52
8,CC(C)CN(CC(C)C)c1ccc(-c2ccccc2-c2nnn[nH]2)cc1NC(=O)Cc1cccnc1 [Example 31],7.15
9,CC(C)CN(CC(C)C)c1ccc(-c2ccccc2-c2nnn[nH]2)cc1NC(=O)CS(=O)(=O)c1ccccc1 [Example 32],5.40
10,CC(C)CN(CC(C)C)c1ccc(-c2ccccc2-c2nnn[nH]2)cc1NC(=O)CC1CC1 [Example 33],6.30
11,CC(C)CN(CC(C)C)c1ccc(-c2ccccc2-c2nnn[nH]2)cc1NC(=O)Cc1ccc(Oc2ccccc2)cc1 [Example 34],6.60
12,CC(C)CN(CC(C)C)c1ccc(-c2ccccc2-c2nnn[nH]2)cc1NC(=O)CC(F)(F)F [Example 35],6.57
13,Cc1nc(CC(=O)Nc2cc(-c3ccccc3-c3nnn[nH]3)ccc2N(CC(C)C)CC(C)C)cs1 [Example 36],6.40
14,Cc1noc(C)c1CC(=O)Nc1cc(-c2ccccc2-c2nnn[nH]2)ccc1N(CC(C)C)CC(C)C [Example 37],5.89
15,CC(C)CN(CC(C)C)c1ccc(-c2ccccc2-c2nnn[nH]2)cc1NC(=O)CN1CCOCC1 [Example 38],5.60
16,CC(C)CN(CC(C)C)c1ccc(-c2ccccc2-c2nnn[nH]2)cc1NC(=O)Cc1cccc(F)c1F [Example 39],7.30
17,Cc1ccc(OCC(=O)Nc2cc(-c3ccccc3-c3nnn[nH]3)ccc2N(CC(C)C)CC(C)C)cc1 [Example 40],6.80
18,COCCOCC(=O)Nc1cc(-c2ccccc2-c2nnn[nH]2)ccc1N(CC(C)C)CC(C)C [Example 41],5.74
19,CC(C)CN(CC(C)C)c1ccc(-c2ccccc2-c2nnn[nH]2)cc1NC(=O)COc1cccnc1 [Example 42],6.30
20,CC(C)CN(CC(C)C)c1ccc(-c2ccccc2-c2nnn[nH]2)cc1NC(=O)Cc1ccc(C#N)cc1 [Example 43],8.29
21,CC(C)CN(CC(C)C)c1ccc(-c2ccccc2-c2nnn[nH]2)cc1NC(=O)Cc1cncc(Br)c1 [Example 44],7.10
22,"CC(C)CN(CC(C)C)c1ccc(-c2ccccc2-c2nnn[nH]2)cc1NC(=O)Oc1ccc(Cl)cc1 [Example 45, 4-Chlorophenyl (4-(diisobutylamino)-2′-(1H-tetrazol-5-yl)-[1,1′-biphenyl]-3-yl)carbamate]",5.41
